Data from patent US20250221413A1, “Use and Preparation Method of Sulfoxamyl, and Oxidation System” (priority 2023, published 2025).
Where “and” joins values, the source holds several entries; their conditions need not be identical. Equal entries are not always repeated. Entries after “also recorded” stand apart in the source; their conditions may differ.

Key:
SD rats [1] = test: Acute oral toxicity test, single oral fixed-dose procedure; type: in vivo
Description: (§1) Materials: the test agent 98% sulfoxamyl technical, batch number 20230708-1, was provided by Ningxia Hugerise Chemical Co., Ltd. Experimental animals: SPF-grade SD rats, half male and half female, weighing 180 g to 220 g, were provided by Jinan Pengyue Experimental Animal Breeding Co., Ltd., license number SCXK (Lu) 20190003. Rearing environment: the rats were housed in an SPF-grade animal room with free access to water and food, a temperature of 20° C. to 25° C., a humidity of 40% to 60%, and a 12 h/12 h light cycle. Feed: conventional pellet feed was provided by Jinan Pengyue Experimental Animal Breeding Co., Ltd.
(§2) The test was conducted in accordance with “Toxicological test methods of pesticides for registration, GB15670.5-2017”, “Acute toxicity test, GB15193.3-2003” and relevant acute toxicity research data.
Methods: a single oral fixed-dose procedure was conducted to preliminarily explore the toxic dose range of sulfoxamyl. LD50 and confidence limits were calculated by using the probability unit method (Bliss method). SD rats were randomly divided into 5 groups, 10 rats in each group, half of them were male and half were female. […] The common ratio value among each dose group was 0.75. After a single oral administration, the mortality rate of the experimental animals was recorded within 24 h and 14 days after administration, while the general condition of the animals was observed, and the food intake and body weight changes were recorded.

SD rats [2] = test: Acute oral toxicity test, probability unit method (Bliss method), LD50 by Probit regression; type: in vivo; conditions: for Death count: 24 h
Description: as §1, §2
(§3) Methods: a single oral fixed-dose procedure was conducted to preliminarily explore the toxic dose range of sulfoxamyl. LD50 and confidence limits were calculated by using the probability unit method (Bliss method). SD rats were randomly divided into 5 groups, 10 rats in each group, half of them were male and half were female. The dosages administered to each group were 474.61 mg/kg, 632.81 mg/kg, 843.75 mg/kg, 1,125 mg/kg, and 1,500 mg/kg. The common ratio value among each dose group was 0.75. After a single oral administration, the mortality rate of the experimental animals was recorded within 24 h and 14 days after administration, while the general condition of the animals was observed, and the food intake and body weight changes were recorded.
(§4) According to the above test dose, number of animals, number of deaths and other data, SPSS statistical software was used to calculate LD50 by Probit regression, and the results are shown in Table 3.

[3] = as above; type: in vivo, SD rats; conditions: both sexes, Sprague-Dawley, rat, in vivo, po; SD rats, Probit regression
Description: as §1, §2, §3, §4

CNC(=O)O/N=C(/C(=O)N(C)C)S(C)(=O)=O [Sulfoxamyl, N,N-dimethyl-2-[[[(methylamino)carbonyl]oxy]imino]-2-(methylsulfonyl)acetamide]
Main clinical symptom (SD rats [1]; single oral dose 50 mg/kg): Asymptomatic
Death count (SD rats [1]; single oral dose 50 mg/kg, 50 mg/kg): 0/6
Death count (SD rats [1]; single oral dose 50 mg/kg, listed as sulfoxamyl, 50 mg/kg): no animals die
Main clinical symptom (SD rats [1]; single oral dose 500 mg/kg): Some rats with intense abdominal breathing,
Death count (SD rats [1]; single oral dose 500 mg/kg, 500 mg/kg): 0/6
Death count (SD rats [1]; single oral dose 500 mg/kg, listed as sulfoxamyl, 500 mg/kg): no animals die
Main clinical symptom (SD rats [1]; single oral dose 1000 mg/kg): Intense abdominal breathing,
Death count (SD rats [1]; single oral dose 1000 mg/kg, 1000 mg/kg): 8/10
Death count (SD rats [1]; single oral dose 1000 mg/kg, listed as sulfoxamyl, 1000 mg/kg): 8
Main clinical symptom (SD rats [1]; single oral dose 2000 mg/kg): Intense abdominal breathing,
Death count (SD rats [1]; single oral dose 2000 mg/kg, 2000 mg/kg): 6/6
Death count (SD rats [1]; single oral dose 2000 mg/kg, listed as sulfoxamyl, 2000 mg/kg): all animals
toxicity level (acute oral) (SD rats [2]; GB15670-1995 classification): low toxic; also recorded: Low Toxicity
Probit Estimation for dose (SD rats [2]; Probability 0.010): 379.474 mg/kg
Probit Estimation for log(dose) (SD rats [2]; Probability 0.010): 2.579
Probit Estimation for dose (SD rats [2]; Probability 0.020): 415.442 mg/kg
Probit Estimation for log(dose) (SD rats [2]; Probability 0.020): 2.619
Probit Estimation for dose (SD rats [2]; Probability 0.030): 440.010 mg/kg
Probit Estimation for log(dose) (SD rats [2]; Probability 0.030): 2.643
Probit Estimation for dose (SD rats [2]; Probability 0.040): 459.445 mg/kg
Probit Estimation for log(dose) (SD rats [2]; Probability 0.040): 2.662
Probit Estimation for dose (SD rats [2]; Probability 0.050): 475.885 mg/kg
Probit Estimation for log(dose) (SD rats [2]; Probability 0.050): 2.678
Probit Estimation for dose (SD rats [2]; Probability 0.060): 490.341 mg/kg
Probit Estimation for log(dose) (SD rats [2]; Probability 0.060): 2.690
Probit Estimation for dose (SD rats [2]; Probability 0.070): 503.377 mg/kg
Probit Estimation for log(dose) (SD rats [2]; Probability 0.070): 2.702
Probit Estimation for dose (SD rats [2]; Probability 0.080): 515.342 mg/kg
Probit Estimation for log(dose) (SD rats [2]; Probability 0.080): 2.712
Probit Estimation for dose (SD rats [2]; Probability 0.090): 526.471 mg/kg
Probit Estimation for log(dose) (SD rats [2]; Probability 0.090): 2.721
Probit Estimation for dose (SD rats [2]; Probability 0.100): 536.928 mg/kg
Probit Estimation for log(dose) (SD rats [2]; Probability 0.100): 2.730
Probit Estimation for dose (SD rats [2]; Probability 0.150): 582.478 mg/kg
Probit Estimation for log(dose) (SD rats [2]; Probability 0.150): 2.765
Probit Estimation for dose (SD rats [2]; Probability 0.200): 621.421 mg/kg
Probit Estimation for log(dose) (SD rats [2]; Probability 0.200): 2.793
Probit Estimation for dose (SD rats [2]; Probability 0.250): 656.898 mg/kg
Probit Estimation for log(dose) (SD rats [2]; Probability 0.250): 2.817
Probit Estimation for dose (SD rats [2]; Probability 0.300): 690.481 mg/kg
Probit Estimation for log(dose) (SD rats [2]; Probability 0.300): 2.839
Probit Estimation for dose (SD rats [2]; Probability 0.350): 723.131 mg/kg
Probit Estimation for log(dose) (SD rats [2]; Probability 0.350): 2.859
Probit Estimation for dose (SD rats [2]; Probability 0.400): 755.539 mg/kg
Probit Estimation for log(dose) (SD rats [2]; Probability 0.400): 2.878
Probit Estimation for dose (SD rats [2]; Probability 0.450): 788.276 mg/kg
Probit Estimation for log(dose) (SD rats [2]; Probability 0.450): 2.897
Probit Estimation for dose (SD rats [2]; Probability 0.500): 821.879 mg/kg
Probit Estimation for log(dose) (SD rats [2]; Probability 0.500): 2.915
Probit Estimation for dose (SD rats [2]; Probability 0.550): 856.914 mg/kg
Probit Estimation for log(dose) (SD rats [2]; Probability 0.550): 2.933
Probit Estimation for dose (SD rats [2]; Probability 0.600): 894.044 mg/kg
Probit Estimation for log(dose) (SD rats [2]; Probability 0.600): 2.951
Probit Estimation for dose (SD rats [2]; Probability 0.650): 934.112 mg/kg
Probit Estimation for log(dose) (SD rats [2]; Probability 0.650): 2.970
Probit Estimation for dose (SD rats [2]; Probability 0.700): 978.282 mg/kg
Probit Estimation for log(dose) (SD rats [2]; Probability 0.700): 2.990
Probit Estimation for dose (SD rats [2]; Probability 0.750): 1028.295 mg/kg
Probit Estimation for log(dose) (SD rats [2]; Probability 0.750): 3.012
Probit Estimation for dose (SD rats [2]; Probability 0.800): 1087.001 mg/kg
Probit Estimation for log(dose) (SD rats [2]; Probability 0.800): 3.036
Probit Estimation for dose (SD rats [2]; Probability 0.850): 1159.674 mg/kg
Probit Estimation for log(dose) (SD rats [2]; Probability 0.850): 3.064
Probit Estimation for dose (SD rats [2]; Probability 0.900): 1258.055 mg/kg
Probit Estimation for log(dose) (SD rats [2]; Probability 0.900): 3.100
Main clinical symptom (SD rats [2]; oral 474.61 mg/kg): Asymptomatic
Death count (SD rats [2]; oral 474.61 mg/kg, 474.61 mg/kg): no experimental animals and 0/10
Main clinical symptom (SD rats [2]; oral 632.81 mg/kg): Intense abdominal breathing,
Death count (SD rats [2]; oral 632.81 mg/kg, 632.81 mg/kg): 3 and 3/10
Main clinical symptom (SD rats [2]; oral 843.75 mg/kg): Intense abdominal breathing, malaise, drooling, tremors
Death count (SD rats [2]; oral 843.75 mg/kg, 843.75 mg/kg): 6 and 6/10
Main clinical symptom (SD rats [2]; oral 1125 mg/kg): Intense abdominal breathing, malaise, drooling, tremors
Death count (SD rats [2]; oral 1125 mg/kg, 1125 mg/kg): 7 and 8/10
Main clinical symptom (SD rats [2]; oral 1500 mg/kg): Intense abdominal breathing,
Death count (SD rats [2]; oral 1500 mg/kg, 1500 mg/kg): all animals and 10/10
new deaths 14 days after administration compared to 24 h (SD rats [2]; oral, all dose groups): no new deaths
LD50 at 14 days [3]: 822 mg/kg
